In patent US9328112B2, “Tetracyclic CDK9 kinase inhibitors” (AbbVie Inc., priority 2014, dated 2016):

How the values were obtained:
H929 cells = experiment: Cell viability assay (Cell TiterGlo); assay type: cell-based; conditions: Cell TiterGlo luminescence
Procedure: The cell viability assay was performed using H929 cells. Cells were seeded in 96-well plates at 10,000 cells/well and, after overnight incubation, treated with compounds in a dose response of 3-fold dilutions from 10 μM to 0.005 μM ([…], 0.1% final DMSO concentration). After 24 hours at 37° C., cell viability was measured using Cell TiterGlo reagent (Promega) with a luminescence reader.

CDK9/Cyclin T1 = CDK9/Cyclin T1 (Homo sapiens (Human), UniProt P50750); experiment: CDK9 enzyme assay (LANCE ULight TR-FRET kinase assay); assay type: biochemical; conditions: 1000 μM ATP, 100 nM ULight MBP, kinase reaction 1 hour
Procedure: CDK9 enzyme activities were measured using LANCE ULight TR-FRET kinase assay reagents (PerkinElmer, Waltham, Mass.). Compounds were diluted in 100% DMSO then diluted with 1:10 in serine/threonine kinase assay buffer containing 20 mM HEPES, 10 mM MgCl2, […], and 0.0075% Triton X-100. Equal volume of the compound dilutions was added to a final reaction mixture containing LANCE detection buffer (PerkinElmer CR97-100), 100 nM ULight MBP (PerkinElmer TRF0109M), 1000 μM ATP, and CDK9/Cyclin T1 (Carna Biosciences 04-110). The kinase reaction was carried out for 1 hour before addition of stopping buffer to a final of 20 mM EDTA and 0.5 nM of LANCE Ultra Europium anti-phospho-MBP antibody (PerkinElmer TRF0201M) in LANCE detection buffer. The reaction was incubated for 1 hour and the signal was read in Envision in TR-FRET mode (excitation at 320 nm and emission at 615/665 nm).

[1] = Homo sapiens, NCI-H929, 24 hours at 37° C.

Sequence of CDK9/Cyclin T1 (P50750 whole entry): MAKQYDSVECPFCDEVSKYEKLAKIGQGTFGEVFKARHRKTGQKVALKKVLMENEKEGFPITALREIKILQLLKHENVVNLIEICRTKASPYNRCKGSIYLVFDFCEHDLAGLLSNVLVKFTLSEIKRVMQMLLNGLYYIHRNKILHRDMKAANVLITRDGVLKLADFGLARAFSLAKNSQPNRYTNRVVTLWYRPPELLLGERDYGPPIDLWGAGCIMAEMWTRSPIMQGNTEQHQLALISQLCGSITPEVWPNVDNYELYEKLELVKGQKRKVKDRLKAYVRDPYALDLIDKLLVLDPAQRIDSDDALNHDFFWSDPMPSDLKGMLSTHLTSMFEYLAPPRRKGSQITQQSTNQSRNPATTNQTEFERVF
Sequence of CDK9/Cyclin T1 (O60563 whole entry partner): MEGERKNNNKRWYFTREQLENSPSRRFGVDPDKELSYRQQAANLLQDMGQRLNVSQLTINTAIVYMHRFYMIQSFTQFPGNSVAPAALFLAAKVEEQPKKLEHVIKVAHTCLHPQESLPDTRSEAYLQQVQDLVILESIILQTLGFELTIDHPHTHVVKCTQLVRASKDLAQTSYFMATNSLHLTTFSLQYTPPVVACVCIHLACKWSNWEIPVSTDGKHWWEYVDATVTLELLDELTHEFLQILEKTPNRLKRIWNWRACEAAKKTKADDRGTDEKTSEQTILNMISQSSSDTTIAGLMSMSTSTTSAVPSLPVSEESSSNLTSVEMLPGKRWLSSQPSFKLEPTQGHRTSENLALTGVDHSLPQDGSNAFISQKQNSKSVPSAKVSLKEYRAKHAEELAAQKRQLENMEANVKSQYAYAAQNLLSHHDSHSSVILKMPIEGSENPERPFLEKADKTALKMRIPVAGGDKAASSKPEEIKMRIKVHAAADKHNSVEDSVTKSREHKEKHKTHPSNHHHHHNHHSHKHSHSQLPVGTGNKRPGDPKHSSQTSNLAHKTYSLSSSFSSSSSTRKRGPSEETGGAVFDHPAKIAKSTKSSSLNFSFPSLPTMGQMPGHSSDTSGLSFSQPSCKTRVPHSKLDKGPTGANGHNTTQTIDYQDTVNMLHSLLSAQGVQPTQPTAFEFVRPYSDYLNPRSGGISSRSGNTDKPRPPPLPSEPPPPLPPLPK

Row | Structure (SMILES) | IC50 (H929 cells; [1]) [µM] | IC50 (CDK9/Cyclin T1) [µM] | IC50 (H929 cells; 24 hours at 37° C.) [µM]
1 | CN1Cc2c(C3=CCN(S(C)(=O)=O)CC3)[nH]c3nccc(c23)-c2cc(F)c(F)cc21 [Example 131, 9,10-difluoro-7-methyl-5-[1-(methylsulfonyl)-1,2,3,6-tetrahydropyridin-4-yl]-6,7-dihydro-4H-3,4,7-triazadibenzo[cd,f]azulene] | 0.079 | 0.036 | 
2 | CN1Cc2c(C3=CCN(C4CCC(C(C)(C)C(=O)O)CC4)CC3)[nH]c3nccc(c23)-c2cc(F)ccc21 (stereo not shown) [Example 185, 2-{4-[4-(10-fluoro-7-methyl-6,7-dihydro-4H-3,4,7-triazadibenzo[cd,f]azulen-5-yl)-3,6-dihydropyridin-1(2H)-yl]cyclohexyl}-2-methylpropanoic acid] | 0.16 | 0.13 | 
3 | CN1Cc2c(C3=CCN([C@H]4CC[C@H](C(=O)O)CC4)CC3)[nH]c3nccc(c23)-c2cc(F)c(F)cc21 [Example 150, trans-4-[4-(9,10-difluoro-7-methyl-6,7-dihydro-4H-3,4,7-triazadibenzo[cd,f]azulen-5-yl)-3,6-dihydropyridin-1(2H)-yl]cyclohexanecarboxylic acid] | 0.028 | 0.057 | 
4 | CN1Cc2c(C3=CC4CN(S(C)(=O)=O)CC4C3)[nH]c3nccc(c23)-c2cc(F)ccc21 (stereo not shown) [Example 78, 10-fluoro-7-methyl-5-[2-(methylsulfonyl)-1,2,3,3a,4,6a-hexahydrocyclopenta[c]pyrrol-5-yl]-6,7-dihydro-4H-3,4,7-triazadibenzo[cd,f]azulene] | 0.03 | 0.062 | 
5 | CN1Cc2c(C3=CCN(CC(=O)N(CCO)CCO)CC3)[nH]c3nccc(c23)-c2cc(F)ccc21 [Example 53, 2-[4-(10-fluoro-7-methyl-6,7-dihydro-4H-3,4,7-triazadibenzo[cd,f]azulen-5-yl)-3,6-dihydropyridin-1(2H)-yl]-N,N-bis(2-hydroxyethyl)acetamide] | 0.047 | 0.057 | 
6 | CN1Cc2c(C3=CCN(C4CC(CC(=O)O)C4)CC3)[nH]c3ncc(F)c(c23)-c2cc(F)ccc21 (stereo not shown) [Example 192, {3-[4-(1,10-difluoro-7-methyl-6,7-dihydro-4H-3,4,7-triazadibenzo[cd,f]azulen-5-yl)-3,6-dihydropyridin-1(2H)-yl]cyclobutyl}acetic acid] | 0.027 | 0.079 | 
7 | CN1Cc2c(C3=C[C@H]4COC(=O)N4CC3)[nH]c3nccc(c23)-c2cc(F)ccc21 [Example 152, (8aS)-7-(10-fluoro-7-methyl-6,7-dihydro-4H-3,4,7-triazadibenzo[cd,f]azulen-5-yl)-1,5,6,8a-tetrahydro[1,3]oxazolo[3,4-a]pyridin-3-one] | 0.66 | 0.041 | 
8 | CN1Cc2c(C3=CCCNCC3)[nH]c3nccc(c23)-c2cc(F)ccc21 [Example 87, 10-fluoro-7-methyl-5-(2,3,6,7-tetrahydro-1H-azepin-4-yl)-6,7-dihydro-4H-3,4,7-triazadibenzo[cd,f]azulene] | 0.1 | 0.09 | 
9 | CCOC(=O)C1c2c(C3=CCNCC3)[nH]c3nccc(c23)-c2cc(F)ccc2N1C (stereo not shown) [Example 28, ethyl 10-fluoro-7-methyl-5-(1,2,3,6-tetrahydropyridin-4-yl)-6,7-dihydro-4H-3,4,7-triazadibenzo[cd,f]azulene-6-carboxylate] | 0.025 | 0.15 | 
10 | CN1Cc2c(C3=CCNCC3)[nH]c3nccc(c23)-c2cc(F)c(F)cc21 [Example 144, 9,10-difluoro-7-methyl-5-(1,2,3,6-tetrahydropyridin-4-yl)-6,7-dihydro-4H-3,4,7-triazadibenzo[cd,f]azulene] | 0.007 | 0.029 | 
11 | CNC(=O)C1CC=C(c2[nH]c3nccc4c3c2CN(C)c2ccc(F)cc2-4)CC1 (stereo not shown) [Example 52, 4-(10-fluoro-7-methyl-6,7-dihydro-4H-3,4,7-triazadibenzo[cd,f]azulen-5-yl)-N-methylcyclohex-3-ene-1-carboxamide] | 0.15 | 0.063 | 
12 | CN1Cc2c(C3=CCCN(C4CCC(=CC(=O)O)CC4)CC3)[nH]c3nccc(c23)-c2cc(F)ccc21 (stereo not shown) [Example 184, {4-[4-(10-fluoro-7-methyl-6,7-dihydro-4H-3,4,7-triazadibenzo[cd,f]azulen-5-yl)-2,3,6,7-tetrahydro-1H-azepin-1-yl]cyclohexylidene}acetic acid] | 0.19 | 0.13 | 
13 | CN1c2ccc(F)cc2-c2ccnc3[nH]c(C4=CCNCC4)c(c23)C1c1cnn(C)c1 (stereo not shown) [Example 10, 10-fluoro-7-methyl-6-(1-methyl-1H-pyrazol-4-yl)-5-(1,2,3,6-tetrahydropyridin-4-yl)-6,7-dihydro-4H-3,4,7-triazadibenzo[cd,f]azulene] | 0.36 | 0.23 | 
14 | CN1Cc2c(C3=CCNCC3)[nH]c3nccc(c23)-c2cccnc21 [Example 135, 7-methyl-5-(1,2,3,6-tetrahydropyridin-4-yl)-6,7-dihydro-4H-3,4,7,8-tetraazadibenzo[cd,f]azulene] | 0.076 | 0.063 | 
15 | CN1Cc2c(-c3cnc(N)nc3)[nH]c3nccc(c23)-c2cc(F)ccc21 [Example 46, 5-(10-fluoro-7-methyl-6,7-dihydro-4H-3,4,7-triazadibenzo[cd,f]azulen-5-yl)pyrimidin-2-amine] | > 10 | 3.3 | 
16 | CN(C)C(=O)CN1CC=C(c2[nH]c3nccc4c3c2CCN(C)c2ccc(F)cc2-4)CC1 [Example 129, 2-[4-(8-fluoro-5-methyl-1,3,4,5-tetrahydro-1,5,12-triazabenzo[4,5]cycloocta[1,2,3-cd]inden-2-yl)-3,6-dihydropyridin-1(2H)-yl]-N,N-dimethylacetamide] |  | 0.067 | 0.13
17 | CC1c2c(C3=CCN(S(C)(=O)=O)CC3)[nH]c3nccc(c23)-c2cc(F)ccc2N1C (stereo not shown) [Example 20, 10-fluoro-6,7-dimethyl-5-[1-(methylsulfonyl)-1,2,3,6-tetrahydropyridin-4-yl]-6,7-dihydro-4H-3,4,7-triazadibenzo[cd,f]azulene] | 0.047 | 0.11 | 
18 | CN1Cc2c(C3=C[C@H]4CC[C@@H](C3)N4CC(=O)O)[nH]c3nccc(c23)-c2cc(F)ccc21 [Example 58, [(1R,5S)-3-(10-fluoro-7-methyl-6,7-dihydro-4H-3,4,7-triazadibenzo[cd,f]azulen-5-yl)-8-azabicyclo[3.2.1]oct-2-en-8-yl]acetic acid] | 1.4 | 0.17 | 
19 | CN1Cc2c(-c3ccc(CC(=O)O)cc3)[nH]c3nccc(c23)-c2cc(F)ccc21 [Example 81, [4-(10-fluoro-7-methyl-6,7-dihydro-4H-3,4,7-triazadibenzo[cd,f]azulen-5-yl)phenyl]acetic acid] | 0.79 | 0.068 | 
20 | CS(=O)(=O)N1CC=C(c2[nH]c3nccc4c3c2COc2ccc(F)cc2-4)CC1 [Example 15, 10-fluoro-5-[1-(methylsulfonyl)-1,2,3,6-tetrahydropyridin-4-yl]-4,6-dihydro-7-oxa-3,4-diazadibenzo[cd,f]azulene] | 0.59 | 0.094 | 
21 | CN1Cc2c(C3=CC4CCCC(C3)N4CC(=O)N3CC(O)C3)[nH]c3nccc(c23)-c2cc(F)ccc21 (stereo not shown) [Example 105, 2-[3-(10-fluoro-7-methyl-6,7-dihydro-4H-3,4,7-triazadibenzo[cd,f]azulen-5-yl)-9-azabicyclo[3.3.1]non-2-en-9-yl]-1-(3-hydroxyazetidin-1-yl)ethanone] | 0.19 | 0.098 | 
22 | CN1Cc2c(C3=CCCN(CC(=O)N(C)C4CC(O)C4)C3)[nH]c3nccc(c23)-c2cc(F)ccc21 (stereo not shown) [Example 122, 2-[5-(10-fluoro-7-methyl-6,7-dihydro-4H-3,4,7-triazadibenzo[cd,f]azulen-5-yl)-3,6-dihydropyridin-1(2H)-yl]-N-(3-hydroxycyclobutyl)-N-methylacetamide] | 1.4 | 0.42 | 
23 | C[C@H](NC1CC=C(c2[nH]c3nccc4c3c2CN(C)c2ccc(F)cc2-4)CC1)C(=O)O (stereo partly drawn) [Example 30, N-[4-(10-fluoro-7-methyl-6,7-dihydro-4H-3,4,7-triazadibenzo[cd,f]azulen-5-yl)cyclohex-3-en-1-yl]-L-alanine] | 0.1 | 0.1 | 
24 | CN1Cc2c(-c3cccnc3)[nH]c3nccc(c23)-c2cc(F)ccc21 [Example 60, 10-fluoro-7-methyl-5-(pyridin-3-yl)-6,7-dihydro-4H-3,4,7-triazadibenzo[cd,f]azulene] | 0.32 | 0.075 | 
25 | CN1Cc2c(C3=CCN(S(C)(=O)=O)CC3)[nH]c3nccc(c23)-c2ccccc21 [Example 160, 7-methyl-5-[1-(methylsulfonyl)-1,2,3,6-tetrahydropyridin-4-yl]-6,7-dihydro-4H-3,4,7-triazadibenzo[cd,f]azulene] | 0.094 | 0.085 | 
26 | CN1Cc2c(C3=CCCN(CC(=O)O)CC3)[nH]c3nccc(c23)-c2cc(F)ccc21 [Example 90, [4-(10-fluoro-7-methyl-6,7-dihydro-4H-3,4,7-triazadibenzo[cd,f]azulen-5-yl)-2,3,6,7-tetrahydro-1H-azepin-1-yl]acetic acid] | 1.9 | 0.17 | 
